Values joined by “and” are separate entries in the source; they are usually repeats but may differ in a detail not shown here. Equal values may be shown once. “Also recorded” adds a separate entry of the source.
How the values were obtained:
[1] = tested on: irradiated wild type mice, C57BL/6; experiment: Secondary adaptive transfer of bone marrow cells into irradiated wild type mice; assay type: in vivo, C57BL/6 mice; settings: bone marrow cells from celastrol treated primary adaptive transfer group, 1.5×10^6 cells per mouse; at 7 weeks; control group died within 10 days
Description: Wild type mice that survived the primary transfer were used for secondary transfer. Bone marrow cells obtained from these mice were collected and transferred into irradiated wild type mice, C57BL/6 at 1.5×10^6 cells per mouse.

[2] = tested on: mice with DOX induced heart disease; experiment: Survival in doxorubicin (DOX) induced heart disease; assay type: in vivo, C57BL6/J mice; settings: DOX 20 mg/kg and celastrol 3 mg/kg; after 2 weeks; DOX with placebo 80% mortality
Protocol: The administration of doxorubicin (DOX; adriamycin) to induce cardiac damage is a well-known model of heart disease see for example, Rosenhoff et al., “Adriamycin-induced cardiac damage in the mouse: a small-animal model of cardiotoxicity.” J Natl Cancer Inst. July 1975; 55(1):191-4; and van der Vijgh et al., “Morphometric study of myocardial changes during doxorubicin-induced cardiomyopathy in mice.” Eur J Cancer Clin Oncol. October 1988; 24(10):1603-8. Doxorubicin was administered to C57BL6/J mice to induce heart damage. Groups of 13-14 C57BL6/J mice received either DOX (20 mg/kg) and a placebo, or DOX (20 mg/kg) and celastrol (3 mg/kg). Mice were examined after 2 weeks to determine survival (FIG. 13).

[3] = tested on: irradiated wild type mice, C57BL/6; experiment: Transfer of blood cells of treated GFP mice into irradiated wild type mice; assay type: in vivo, C57BL/6 mice
Protocol: As reported herein, celastrol activated and mobilized stem cells into peripheral blood. These observations were extended using GFP mice to analyse stem cell mobilization. Mice expressing GFP in their bone marrow were treated with celastrol and placebo. Blood samples were collected on the third day and red blood cells were lysed. White blood cells containing mobilized stem cells, if any, were injected at 0.5×10^6 cells per mouse through retro-orbital sinus into wild type mice, C57BL/6 that were irradiated to destroy the hematopoietic systems. Cells obtained from placebo-treated GFP mice were injected into a group of wild type mice which served as control. Blood samples from wild type mice that received stem cells from celastrol-treated GFP mice were analyzed after 3, 4 and 5 months of transfer.

NOD mice = experiment: Blood glucose / diabetes incidence in NOD mouse model; assay type: in vivo
Protocol: The NOD mouse is recognized as a model for human Type1 diabetes (Anderson and Bluestone, “THE NOD MOUSE: A Model of Immune Dysregulation” Annual Review of Immunology 23: 447-485, 2005, which is incorporated by reference in its entirety). Celastrol was administered to the mice at the rate of 3.0 mg/kg body weight via intra-peritoneal injection once a week in NOD mice starting from 4 weeks of age. When mice attained 11 weeks of age, the compound was administered at the rate of 3.3 mg/kg body weight via oral gavage three times a week up to 30 weeks of age. Blood glucose levels were measured at the time of celastrol administration once a week from 4-10 weeks and three times a week from 11-30 weeks. Mice in control group were treated with placebo.

[4] = tested on: cytokine production in mouse blood; experiment: Cytokine/chemokine levels in blood serum (Millipore 21-Plex, Luminex); assay type: in vivo, C57BL6/J mice
Protocol: Mice received either a placebo, celastrol (3.0 mg/kg), or 17-AAG (10 mg/kg) by intraperitoneal injection. Blood samples were taken from all groups of mice at 0, 1, 3, 6, 24, 48, and 72 hours after administration of the placebo, celastrol, or 17-AAG. The blood samples were analyzed for cytokine production, including the production of granulocyte-macrophage colony-stimulating factor (GM-CSF), interferon-gamma (IFN-γ), interleukin-10 (IL-10), interleukin-12 subunit beta (IL-12p40), interleukin-12 heterodimer (IL-12p70), interleukin-12 homodimer (IL-12p80), vascular endothelial growth factor (VEGF), tumor necrosis factor-alpha (TNF-α), keratinocyte derived chemokine (KC), RANTES (Regulated upon Activation, Normal T-cell Expressed, and Secreted; CCL5), monocyte chemotactic protein-1 (MCP 1), macrophage inflammatory protein (MIP1β; CCL4), interleukin-4 (IL-4), interleukin-3 (IL-3), interleukin-2 (IL-2), interleukin-1 beta (IL-1β), interleukin-1 alpha (IL-1α), interleukin-9 (IL-9), interleukin-13 (IL-13), interleukin-17 (IL-17), interleukin-6 (IL-6), and interleukin-5 (IL-5). Blood serum was analyzed using a commercially available kit (e.g., Mouse cytokine/chemokine panel: 21-Plex; Millipore). Blood serum (50 μl) was assayed in duplicate using a commercially available cytokine/chemokine detection kit from Millipore following the protocol given with the product information. The final measurement was performed using a commercially available detector (e.g., computer-operated Luminex 100 IS system) and the results were expressed as pg/ml blood serum sample. Levels of cytokines in blood were quantitated as a concentration of the total volume of the sample.

[5] = tested on: stem cell populations in bone marrow (cd34+, cd45+, Sca-1+ cells); experiment: FACS of cells expressing stem cell markers CD34, CD45, Sca-1 in bone marrow samples; assay type: in vivo, C57BL6/J mice
Protocol: Mice received either a placebo (PBS) or oridonin (3.0 mg/kg) by intraperitoneal injection.

[6] = celastrol 3.0 mg/kg i.p., over the course of the experiment
[7] = celastrol 3.0 mg/kg i.p., throughout the 72 hour time course
[8] = i.p. celastrol 3.0 mg/kg or 17-AAG 10 mg/kg, 72 hour time course
[9] = i.p. celastrol 3.0 mg/kg or 17-AAG 10 mg/kg, sampled 0-72 h
[10] = i.p. celastrol 3.0 mg/kg or 17-AAG 10 mg/kg, sampled 0-72 h, vs placebo control
[11] = celastrol 2.5 mg/kg i.p., 24 hours post treatment

Structure (SMILES): CC1=C(O)C(=O)C=C2C1=CC=C1[C@@]2(C)CC[C@@]2(C)[C@@H]3C[C@](C)(C(=O)O)CC[C@]3(C)CC[C@]12C [celastrol]
- mice still surviving secondary transfer [1]: 85.7%
- survival [2]: 40%
- recipient mice surviving for at least 5 months ([3]; irradiated mice given 0.5×10^6 white blood cells from celastrol treated GFP mice, n=4, placebo-cell recipients died between 12 and 16 days): 50%
- survival time of the other two recipient mice ([3]; irradiated mice given cells from celastrol treated GFP mice): 17 days and 25 days
- mice that became hyperglycemic (more than 250 mg/dL) (NOD mice; celastrol 3.0 mg/kg i.p. once a week from 4 weeks, 3.3 mg/kg oral gavage three times a week from 11 to 30 weeks of age, at 23 weeks of age): twenty
- mice euglycemic or normoglycemic (less than 250 mg/dL) (NOD mice; same regimen, up to 30 weeks of age): Eighty
- level of GM-CSF compared to placebo control ([4]; celastrol 3.0 mg/kg i.p., 72 hour time course): elevated again between 24 and 48 hours; also recorded: elevated again 6 to 48 hours
- level of IL-9 compared to placebo control ([4]; celastrol 3.0 mg/kg i.p., after peak): remained slightly elevated up to 72 hours
- level of IL-6 compared to placebo control [4, 6]: not significantly different
- level of RANTES compared to placebo control [4, 6]: not significantly different
- level of IL-2 compared to placebo control [4, 7]: slightly elevated
- level of VEGF compared to placebo control [4, 7]: slightly elevated
- level of IL-1α compared to placebo control ([4]; celastrol 3.0 mg/kg i.p., throughout the experiment): slightly decreased
- level of IL-13 compared to placebo control ([4]; celastrol 3.0 mg/kg i.p., up to 48 hours post treatment, risen again by 72 hours): slightly elevated
- level of IL-17 compared to placebo control ([4]; i.p. celastrol 3.0 mg/kg (throughout 72 hours) or 17-AAG 10 mg/kg (up to 48 hours)): slightly elevated
- level of IFN-γ compared to placebo control [4, 8]: slightly elevated
- level of IL-5 compared to placebo control [4, 8]: not significantly different
- level of IL-12p40 compared to placebo control [4, 8]: slightly elevated
- time by which GM-CSF (elevated pre treatment) declined to placebo control levels [4, 9]: ≤ 6 h
- time by which IL-3 (slightly elevated pre treatment) declined to placebo control levels [4, 9]: ≤ 1 h
- time by which IL-4 (slightly elevated pre treatment) declined to placebo control levels [4, 9]: ≤ 1 h
- time by which MIP1β returned or declined to placebo control levels [4, 9]: ≤ 6 h
- time by which TNF-α (elevated pre treatment) declined to placebo control levels [4, 9]: ≤ 6 h
- time of peak level of IL-9 post treatment [4, 10]: around 3 hours
- time of peak level of KC post treatment [4, 10]: around 6 hours
- cd34+ cells, percent of the population of bone marrow cells [5, 11]: 0.2%
- fold increase of percentage of cd34+ cells in bone marrow over control [5, 11]: ~4 fold
- fold increase of percentage of cd45+ cells in bone marrow vs untreated control [5, 11]: about 2 fold
- fold increase of percentage of cd34+ cells in bone marrow over control ([5]; celastrol 2.5 mg/kg i.p., 48 hours): ~2 fold
- increase in CD45 population in bone marrow ([5]; celastrol 2.5 mg/kg i.p., 48 hours post treatment, undetectable in placebo mice): still detectable
- fold increase in the proportion of Sca-1+ stem cells in bone marrow vs untreated mice ([5]; celastrol 2.5 mg/kg i.p., by 48 hours): ~3 fold
- fold increase in the proportion of Sca-1+ stem cells in bone marrow vs untreated mice ([5]; celastrol 2.5 mg/kg i.p., time not printed (before 48 hours)): approximately 4 fold
- increase in cd34+, cd45+ and sca-1+ cells compared with GM-CSF ([5]; doses not given): exceeded that observed using GM-CSF
